Common to all, as to assay: DTP human tumour cell line panel, 48 h
Test [1] relates to LOX IMVI melanoma.
Test [2] concerns SK-OV-3 ovarian.
Test [3] concerns MDA-MB-435.
Test [4] concerns SK-MEL-2 melanoma.
Test [5] concerns RPMI-8226 leukemia.
The test system of test [6] is SN12C renal.
In test [7] the test system is HOP-92 NSCLC.
In test [8] the test system is OVCAR-8 ovarian.
Test [9] concerns SK-MEL-5 melanoma.
Test [10] has as its system SF-295 CNS.
In test [11] the test system is HCC-2998 colon.
Test [12] deals with MCF7 breast.
Test [13] concerns SF-539 CNS.
Test [14] has as its system SF-268 CNS.
In test [15] the test system is HCT-116 colon.
Test [16] concerns CAKI-1 renal.
Test [17] deals with U251 CNS.

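Grown in 96-well plates, cells were treated for 48 hours with each compound at five concentrations. Insufficient inhibition: endpoint recorded as highest concentration tested. TGI denotes the concentration required for complete inhibition of growth.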

What is called TGI is the concentration giving total growth inhibition.

As for `c1ccc(-c2nc3ccccc3n3c(CN4CCCCC4)nnc23)cc1`, the TGI in [1], in test [2], in test [3], in [4], in test [5] and in [6] was > 100 µM throughout. The total growth inhibition concentration (TGI) in test [7], in test [8], in [9], in test [10], in test [11] and in [12] was > 100 µM in each case. In addition, the total growth inhibition concentration (TGI) in test [13], in test [14], in test [15], in test [16] and in [17] was > 100 µM in each case.

As to `CN(C)c1ccc(/C=C2/NC(=S)NC2=O)cc1`, the TGI in [1], in test [2], in test [3], in test [4], in [5] and in test [6] was > 100 µM throughout. In addition, the TGI in [7], in [8], in test [9], in [10], in test [11] and in test [12] was > 100 µM in each case. Besides, the concentration for total growth inhibition (TGI) in test [13], in test [14], in [15], in test [16] and in [17] was > 100 µM throughout.

Consider `COC(=O)C1=C(O)C(C(=O)OC)[C@]2(O)[C@H](C(=O)OC)[C@H]1C[C@@H](c1ccc(Cl)cc1)[C@H]2C(=O)OC` (stereo partly drawn), for which the TGI in test [1] was 30.1 µM; in test [2], 23.4 µM; in test [3], 25.4 µM; in test [4] it was 6.51 µM; in [5], > 100 µM; in test [6], 79.6 µM. Besides, the TGI in test [7] was 73.6 µM; in [8], > 100 µM; in test [9], 20.5 µM; in [10] it was 20.6 µM; in [11] it was 22 µM; in [12], 24.1 µM. Further, the concentration for total growth inhibition (TGI) in test [13] is 20.9 µM; in test [14], 29 µM; in test [15], 17.3 µM; in test [16], > 100 µM; in [17] it was 20.9 µM.

Consider `COc1ccccc1N(CN1C(=O)CCC1C(=O)O)C(C)=O` (stereo not drawn), for which the TGI in test [1], in test [2], in [3], in test [4], in [5] and in test [6] was > 100 µM in each case. Also, the total growth inhibition concentration (TGI) in test [7], in [8], in test [9], in test [10], in test [11] and in test [12] was > 100 µM in each case. The total growth inhibition concentration (TGI) in test [13], in test [14], in test [15], in test [16] and in [17] was > 100 µM throughout.

Turning to `COC1(C)CP(=O)(OC(C)C)CC(C)=C1Cl` (stereo not drawn), the concentration for total growth inhibition (TGI) was 39.4 µM in test [1]; > 100 µM in [2]; > 100 µM in [3]; 45.9 µM in [4]; 24.4 µM in [5]; 45.8 µM in test [6]. In addition, the total growth inhibition concentration (TGI) in test [7] is 25.6 µM; in test [8], > 100 µM; in test [9], 26.6 µM; in test [10], 51 µM; in test [11], 49.1 µM; in test [12], 18.6 µM. Moreover, the total growth inhibition concentration (TGI) in test [13] was 39.2 µM; in test [14], > 100 µM; in [15] it was 21 µM; in test [16] it was 36.8 µM; in test [17], 48.9 µM.

For the compound `O=C(O)COCC(=O)N(CCOCCN(Cc1ccccc1)C(=O)COCC(=O)O)Cc1ccccc1`, the total growth inhibition concentration (TGI) in test [1], in [2], in [3], in [4], in test [5] and in test [6] was > 100 µM in each case. Also, the TGI in [7], in [8], in test [9], in test [10], in [11] and in test [12] was > 100 µM throughout. The TGI in test [13], in test [14], in [15], in test [16] and in test [17] was > 100 µM each time.

Turning to `CCCCCCCCCCCCN(CC(O)C(O)C(OC1OC(CO)C(O)C(O)C1O)C(O)CO)C(=O)CCCCCCCCCCC` (stereo not drawn), the TGI turned out to be 41.3 µM in [1]; 52.6 µM in test [2]; 30.8 µM in test [3]; 58.8 µM in test [4]; 50.9 µM in test [5]; 45.4 µM in [6]. Moreover, the TGI in [7] is 39.5 µM; in [8], 46.7 µM; in test [9] it was 31.3 µM; in [10], 37.3 µM; in test [11], 32.6 µM; in test [12] it was > 100 µM. Moreover, the total growth inhibition concentration (TGI) is > 100 µM in test [13]; 43.6 µM in [14]; 36.4 µM in [15]; 33.3 µM in test [16]; 32.6 µM in test [17].

As to `COc1cc(/C=C2/SC(c3ccccc3)N(c3ccccc3Cl)C2=O)cc(OC)c1OC` (stereo not drawn), the TGI in [1] was 41.7 µM; in test [2], 63.4 µM; in test [3], > 100 µM; in test [4] it was > 100 µM; in test [5], 52.3 µM; in [6] it was 46.6 µM. In addition, the TGI in test [7] was > 100 µM; in test [8] it was > 100 µM; in test [9] it was 33.6 µM; in test [10], > 100 µM; in [11], > 100 µM; in [12] it was > 100 µM. Also, the TGI is 36.6 µM in [13]; > 100 µM in [14]; 67.7 µM in test [15]; > 100 µM in [16]; 67.8 µM in test [17].

Consider `CCOC(=O)c1oc2cc3c(c4c2c1-c1ccccc1N4C)C=CC(C)(C)O3`, for which the total growth inhibition concentration (TGI) in test [1] was > 100 µM; in test [2], 69.4 µM; in test [3], > 100 µM; in test [4] it was > 76.4 µM; in [5], > 64 µM; in [6] it was > 100 µM. Moreover, the total growth inhibition concentration (TGI) in test [7] is 17.7 µM; in [8], 27.1 µM; in test [9], 97.9 µM; in test [10], 30.8 µM; in test [11] it was > 100 µM; in test [12], 26.8 µM. Moreover, the TGI was 21.2 µM in test [13]; > 49.3 µM in [14]; > 100 µM in [15]; 40.8 µM in test [16]; 31 µM in test [17].

These data come from PubChem BioAssay (NCI).
